Reference: paper PMC4770715, “LIM kinase inhibitors disrupt mitotic microtubule organization and impair tumor cell proliferation” (Oncotarget, 2015)

Columns and labels:
Assay in all cases: biochemical
Design in all cases: KINOMEscan active-site competition binding, percent of control (100 = no competition)
Settings in all cases: competition binding, percent control
FLT3(ITD) = FLT3(ITD) (Homo sapiens, UniProt P36888, ITD)
Excerpt: (§1) Given the potential for the use of LIMK inhibitors as cancer chemotherapeutics, a high-throughput drug discovery and medicinal chemistry program was undertaken. Details of the screening methodology and description of initial hit matter were described in [38]. […] Details of their chemical synthesis are described in Charles et al.. […] These and additional physiochemical parameters are in Supplemental Table 5. […] Kinases inhibited >25% to 50% have yellow circles, 51% to 75% have orange circles, and >76% have red circles. In each case, the size of the circle is proportional to percentage inhibition. LIMK1 and LIMK2 positions are indicated in blue. Illustration reproduced courtesy of Cell Signaling Technology, Inc. (www.cellsignal.com). B. CRT0105950 structure and kinome selectivity mapping as described above. C.

ERK4 = target: T1, ERK4 (Homo sapiens, UniProt P31152)
T1 construct: gene MAPK4
Excerpt: as §1

VEGFR2 = target: T2, VEGFR2 (Homo sapiens, UniProt P35968)
T2 construct: gene KDR
Excerpt: as §1

NEK1 = NEK1 (Homo sapiens, UniProt Q96PY6)
Excerpt: as §1

CSF1R = CSF1R (Homo sapiens, UniProt P07333)
Chain of CSF1R (P07333 whole entry): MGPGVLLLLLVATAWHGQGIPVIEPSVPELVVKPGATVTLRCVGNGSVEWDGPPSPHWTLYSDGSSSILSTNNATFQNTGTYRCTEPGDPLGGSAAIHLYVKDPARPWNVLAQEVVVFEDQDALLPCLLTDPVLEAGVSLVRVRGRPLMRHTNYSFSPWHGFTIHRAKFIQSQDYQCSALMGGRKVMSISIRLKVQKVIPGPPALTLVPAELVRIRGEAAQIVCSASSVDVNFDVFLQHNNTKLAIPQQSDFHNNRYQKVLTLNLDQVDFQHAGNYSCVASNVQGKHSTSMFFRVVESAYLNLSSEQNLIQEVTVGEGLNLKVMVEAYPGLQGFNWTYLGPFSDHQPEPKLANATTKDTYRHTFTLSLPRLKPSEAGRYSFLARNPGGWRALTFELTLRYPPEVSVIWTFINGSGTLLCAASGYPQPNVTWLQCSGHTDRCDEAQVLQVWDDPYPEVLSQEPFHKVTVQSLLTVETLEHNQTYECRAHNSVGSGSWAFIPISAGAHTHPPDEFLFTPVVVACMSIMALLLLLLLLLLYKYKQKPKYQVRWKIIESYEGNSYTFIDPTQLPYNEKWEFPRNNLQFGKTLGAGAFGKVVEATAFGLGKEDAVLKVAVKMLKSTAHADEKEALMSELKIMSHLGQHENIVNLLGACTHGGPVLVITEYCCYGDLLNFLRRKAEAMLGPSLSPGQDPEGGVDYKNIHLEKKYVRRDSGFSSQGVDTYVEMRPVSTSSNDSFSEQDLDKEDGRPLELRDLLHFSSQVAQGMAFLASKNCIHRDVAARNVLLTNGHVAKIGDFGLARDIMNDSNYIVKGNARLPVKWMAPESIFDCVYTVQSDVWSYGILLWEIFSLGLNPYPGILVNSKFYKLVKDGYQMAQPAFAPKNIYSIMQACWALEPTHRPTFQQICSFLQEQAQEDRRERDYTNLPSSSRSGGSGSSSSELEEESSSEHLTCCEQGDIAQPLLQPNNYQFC
Excerpt: as §1

LCK = LCK (Homo sapiens, UniProt P06239)
Excerpt: as §1

ERBB3 = ERBB3 (Homo sapiens, UniProt P21860)
Excerpt: as §1

RAF1 = RAF1 (Homo sapiens, UniProt P04049)
Excerpt: as §1

BTK = BTK (Homo sapiens, UniProt Q06187)
Excerpt: as §1

LOK = target: T3, LOK (Homo sapiens, UniProt O94804)
T3 construct: gene STK10
T3 sequence (O94804 whole entry): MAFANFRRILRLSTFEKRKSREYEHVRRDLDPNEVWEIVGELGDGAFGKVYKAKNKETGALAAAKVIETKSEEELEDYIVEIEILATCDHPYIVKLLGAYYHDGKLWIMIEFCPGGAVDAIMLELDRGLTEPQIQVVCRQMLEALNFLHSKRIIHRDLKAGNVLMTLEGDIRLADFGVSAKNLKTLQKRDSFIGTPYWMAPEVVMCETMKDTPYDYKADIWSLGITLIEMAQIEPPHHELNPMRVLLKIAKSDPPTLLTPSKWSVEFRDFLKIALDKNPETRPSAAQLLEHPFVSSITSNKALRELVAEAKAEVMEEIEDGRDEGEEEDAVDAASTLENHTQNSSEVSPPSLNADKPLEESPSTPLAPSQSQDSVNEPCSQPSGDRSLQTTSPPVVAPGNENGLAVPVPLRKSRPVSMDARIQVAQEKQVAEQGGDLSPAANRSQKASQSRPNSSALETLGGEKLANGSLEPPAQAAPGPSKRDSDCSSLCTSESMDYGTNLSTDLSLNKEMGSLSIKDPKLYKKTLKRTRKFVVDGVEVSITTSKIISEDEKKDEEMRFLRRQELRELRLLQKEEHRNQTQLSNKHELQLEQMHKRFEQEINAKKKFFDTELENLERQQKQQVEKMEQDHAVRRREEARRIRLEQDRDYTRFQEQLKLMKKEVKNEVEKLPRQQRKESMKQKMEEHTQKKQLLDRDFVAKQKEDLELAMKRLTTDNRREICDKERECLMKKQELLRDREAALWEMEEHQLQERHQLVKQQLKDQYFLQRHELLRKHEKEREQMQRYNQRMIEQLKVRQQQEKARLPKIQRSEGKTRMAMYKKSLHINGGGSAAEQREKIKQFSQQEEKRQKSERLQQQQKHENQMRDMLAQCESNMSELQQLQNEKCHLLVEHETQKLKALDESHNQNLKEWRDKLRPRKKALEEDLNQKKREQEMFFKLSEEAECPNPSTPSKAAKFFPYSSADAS
Excerpt: as §1

SRC = SRC (Homo sapiens, UniProt P12931)
Excerpt: as §1

ACVR1B = ACVR1B (Homo sapiens, UniProt P36896)
Chain of ACVR1B (P36896 whole entry): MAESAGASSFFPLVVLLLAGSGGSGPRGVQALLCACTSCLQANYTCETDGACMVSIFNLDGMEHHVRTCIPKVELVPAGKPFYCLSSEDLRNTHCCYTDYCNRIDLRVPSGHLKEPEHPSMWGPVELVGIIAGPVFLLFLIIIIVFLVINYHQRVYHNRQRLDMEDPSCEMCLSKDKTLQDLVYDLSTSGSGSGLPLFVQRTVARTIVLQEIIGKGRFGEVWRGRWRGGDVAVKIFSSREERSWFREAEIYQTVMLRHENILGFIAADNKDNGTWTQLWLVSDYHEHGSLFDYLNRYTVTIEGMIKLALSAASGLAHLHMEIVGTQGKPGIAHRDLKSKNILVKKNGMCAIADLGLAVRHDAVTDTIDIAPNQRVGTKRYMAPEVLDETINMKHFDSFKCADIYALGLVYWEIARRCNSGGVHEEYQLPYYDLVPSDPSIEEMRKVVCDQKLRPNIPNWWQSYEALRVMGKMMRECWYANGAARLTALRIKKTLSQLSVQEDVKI
Excerpt: as §1

MINK = target: T4, MINK (Homo sapiens, UniProt Q8N4C8)
T4 construct: gene MINK1
Excerpt: as §1

BRSK2 = BRSK2 (Homo sapiens, UniProt Q8IWQ3)
Excerpt: as §1

FRK = FRK (Homo sapiens, UniProt P42685)
Excerpt: as §1

LRRK2 = LRRK2 (Homo sapiens, UniProt Q5S007)
Chain of LRRK2 (Q5S007 whole entry): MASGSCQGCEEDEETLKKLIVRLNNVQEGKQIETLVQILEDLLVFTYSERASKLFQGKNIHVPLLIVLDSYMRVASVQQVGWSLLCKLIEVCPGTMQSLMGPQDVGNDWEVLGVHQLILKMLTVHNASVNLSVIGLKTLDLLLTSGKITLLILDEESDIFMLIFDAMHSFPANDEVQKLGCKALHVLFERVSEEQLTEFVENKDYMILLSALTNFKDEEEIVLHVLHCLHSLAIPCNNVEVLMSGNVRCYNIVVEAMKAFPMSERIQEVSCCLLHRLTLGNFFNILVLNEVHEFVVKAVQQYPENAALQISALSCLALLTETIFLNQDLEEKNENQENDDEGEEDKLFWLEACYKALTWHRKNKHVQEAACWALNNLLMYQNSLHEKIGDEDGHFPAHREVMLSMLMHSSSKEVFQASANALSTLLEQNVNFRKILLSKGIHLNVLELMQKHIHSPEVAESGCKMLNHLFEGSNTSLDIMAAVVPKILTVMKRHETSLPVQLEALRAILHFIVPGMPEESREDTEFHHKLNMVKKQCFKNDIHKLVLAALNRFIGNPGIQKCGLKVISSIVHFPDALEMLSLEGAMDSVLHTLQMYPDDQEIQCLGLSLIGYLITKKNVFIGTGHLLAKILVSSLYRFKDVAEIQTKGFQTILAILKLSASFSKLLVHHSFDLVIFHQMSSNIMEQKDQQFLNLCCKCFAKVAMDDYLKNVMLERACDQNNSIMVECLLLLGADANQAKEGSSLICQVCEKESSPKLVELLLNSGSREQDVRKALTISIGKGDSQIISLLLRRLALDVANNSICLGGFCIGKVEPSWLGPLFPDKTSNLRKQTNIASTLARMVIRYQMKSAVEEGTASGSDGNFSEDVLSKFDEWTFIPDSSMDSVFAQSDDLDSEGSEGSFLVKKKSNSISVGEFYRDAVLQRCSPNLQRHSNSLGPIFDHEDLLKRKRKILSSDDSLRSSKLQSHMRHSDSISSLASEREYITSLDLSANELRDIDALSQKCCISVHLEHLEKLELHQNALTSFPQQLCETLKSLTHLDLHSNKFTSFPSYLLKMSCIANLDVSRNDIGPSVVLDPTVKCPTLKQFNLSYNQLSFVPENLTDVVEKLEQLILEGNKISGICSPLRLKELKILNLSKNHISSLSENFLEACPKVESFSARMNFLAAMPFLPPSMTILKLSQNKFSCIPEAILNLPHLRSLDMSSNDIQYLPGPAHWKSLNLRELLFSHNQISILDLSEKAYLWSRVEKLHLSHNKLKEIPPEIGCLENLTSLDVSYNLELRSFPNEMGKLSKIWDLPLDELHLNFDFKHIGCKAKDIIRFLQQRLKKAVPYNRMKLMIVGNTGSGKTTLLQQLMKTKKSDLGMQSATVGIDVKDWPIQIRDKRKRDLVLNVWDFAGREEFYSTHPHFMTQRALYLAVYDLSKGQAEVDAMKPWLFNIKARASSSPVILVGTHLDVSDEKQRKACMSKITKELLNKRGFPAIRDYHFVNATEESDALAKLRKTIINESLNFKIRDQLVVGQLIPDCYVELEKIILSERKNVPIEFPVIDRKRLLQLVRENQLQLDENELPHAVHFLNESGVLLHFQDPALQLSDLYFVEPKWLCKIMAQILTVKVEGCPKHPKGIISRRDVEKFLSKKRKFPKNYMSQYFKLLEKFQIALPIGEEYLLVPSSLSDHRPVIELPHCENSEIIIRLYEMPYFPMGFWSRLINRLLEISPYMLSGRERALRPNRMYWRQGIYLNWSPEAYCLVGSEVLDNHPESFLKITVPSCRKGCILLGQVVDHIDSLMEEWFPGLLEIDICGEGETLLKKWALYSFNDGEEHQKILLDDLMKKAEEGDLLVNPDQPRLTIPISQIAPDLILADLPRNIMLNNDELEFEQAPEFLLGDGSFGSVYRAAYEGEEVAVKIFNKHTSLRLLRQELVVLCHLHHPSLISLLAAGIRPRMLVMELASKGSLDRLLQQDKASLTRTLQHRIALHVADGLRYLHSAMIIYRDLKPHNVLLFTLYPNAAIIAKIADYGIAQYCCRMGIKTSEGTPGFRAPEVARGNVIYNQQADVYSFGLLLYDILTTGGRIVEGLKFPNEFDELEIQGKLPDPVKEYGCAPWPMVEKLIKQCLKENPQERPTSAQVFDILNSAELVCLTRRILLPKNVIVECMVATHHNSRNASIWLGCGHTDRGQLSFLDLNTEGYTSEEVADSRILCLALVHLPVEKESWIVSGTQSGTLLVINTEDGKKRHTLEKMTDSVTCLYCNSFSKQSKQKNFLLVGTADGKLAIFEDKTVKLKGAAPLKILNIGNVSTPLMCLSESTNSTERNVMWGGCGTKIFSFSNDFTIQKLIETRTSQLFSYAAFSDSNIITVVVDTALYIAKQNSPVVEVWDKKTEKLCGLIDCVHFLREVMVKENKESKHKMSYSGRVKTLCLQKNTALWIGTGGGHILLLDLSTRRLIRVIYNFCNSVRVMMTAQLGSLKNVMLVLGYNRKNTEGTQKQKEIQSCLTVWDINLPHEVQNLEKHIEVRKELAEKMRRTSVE
Excerpt: as §1

VRK2 = VRK2 (Homo sapiens, UniProt Q86Y07)
Excerpt: as §1

MST3 = target: T5, MST3 (Homo sapiens, UniProt Q9Y6E0)
T5 construct: gene STK24
Excerpt: as §1

EPHA1 = EPHA1 (Homo sapiens, UniProt P21709)
Excerpt: as §1

WEE1 = WEE1 (Homo sapiens, UniProt P30291)
Excerpt: as §1

ADCK4 = target: T6, ADCK4 (Homo sapiens, UniProt Q96D53)
T6 construct: gene COQ8B
Excerpt: as §1

MEK6 = target: T7, MEK6 (Homo sapiens, UniProt P52564)
T7 construct: gene MAP2K6
Excerpt: as §1

RIOK1 = RIOK1 (Homo sapiens, UniProt Q9BRS2)
Excerpt: as §1

SMILES	remaining binding at 10 µM (FLT3(ITD)) [%]	remaining binding at 10 µM (ERK4) [%]	remaining binding at 10 µM (VEGFR2) [%]	remaining binding at 10 µM (NEK1) [%]	remaining binding at 10 µM (CSF1R) [%]	remaining binding at 10 µM (LCK) [%]	remaining binding at 10 µM (ERBB3) [%]	remaining binding at 10 µM (RAF1) [%]	remaining binding at 10 µM (BTK) [%]	remaining binding at 10 µM (LOK) [%]	remaining binding at 10 µM (SRC) [%]	remaining binding at 10 µM (ACVR1B) [%]	remaining binding at 10 µM (MINK) [%]	remaining binding at 10 µM (BRSK2) [%]	remaining binding at 10 µM (FRK) [%]	remaining binding at 10 µM (LRRK2) [%]	remaining binding at 10 µM (VRK2) [%]	remaining binding at 10 µM (MST3) [%]	remaining binding at 10 µM (EPHA1) [%]	remaining binding at 10 µM (WEE1) [%]	also measured
COc1ccc(-c2cnccc2-c2cnc(NC(=O)C(C)C)s2)c(C(F)(F)F)c1 [CRT0105446, N-{5-[3-(4-Methoxy-2-trifluoromethyl-phenyl)-pyridin-4-yl]-hiazol-2-yl}-isobutyramide]	79	100	73	100	51	100	100	100	85	100	100	82	100	59	98	91	95	72	100	87	remaining binding at 10 µM (ADCK4): 85%; remaining binding at 10 µM (MEK6): 100%; remaining binding at 10 µM (RIOK1): 97%
Cc1ccc(-c2cnccc2-c2cnc(Nc3ccc(O)cc3)s2)c(Cl)c1 [CRT0105950, 4-{5-[3-(2-Chloro-4-methyl-phenyl)-pyridin-4-yl]-thiazol-2-ylamino}-phenol]	4.4	86	45	81	1.2	20	100	85	72	51	82	76	13	33	59	54	72	40	74	48	remaining binding at 10 µM (ADCK4): 58%; remaining binding at 10 µM (MEK6): 20%; remaining binding at 10 µM (RIOK1): 65%
